Series [1] can be described thus: Therapeutic index (LD50 divided by ED50). Details: species or system adult albino male mice (Charles River strain). The conditions noted are these: mouse, in vivo; oral LD50 / oral hot-plate ED50, mice. On the procedure:
By therapeutic index is meant the LD50 of a compound divided by its ED50, or the dose required to kill one-half of the test animals divided by the dose required to produce the desired therapeutic effect in one-half of the test animals. It will be apparent that the larger the therapeutic index, the greater the margin of safety and the more desirable the drug.
(§1) All tests were conducted on adult albino male mice (Charles River strain); the dosage consisted of the active agent suspended in 10% aqueous acacia and was administered orally and/or subcutaneously as indicated.
(§2) Acute oral toxicity was determined in the conventional manner. The results were expressed as LD50, the dose required to produce death in 50% of the animals treated, determined graphically, with the 95% limits shown in parentheses.
Two established procedures were employed to determine analgetic activity. The method described by Eddy, N. B., and Leimbach, D., J. Pharmacol. Exptl. Therap. 107, 385 (1953) was followed, with the following modifications, in the first procedure. Mice are pretested by placing them individually on the cleaned surface of a copper water bath, the temperature of which is maintained at 54°-55°C. The reaction time of this noxious thermal stimulus is the time in seconds required for either licking of the paws or jumping, such that all four paws leave the surface of the plate. […]

A short description of series [2]: Hot-plate analgetic activity (Eddy and Leimbach, modified). The conditions noted are these: for ED50: Mus musculus, mice. The format is in vivo, adult albino male mice (Charles River strain). As to the method:
as §1
Two established procedures were employed to determine analgetic activity. The method described by Eddy, N. B., and Leimbach, D., J. Pharmacol. Exptl. Therap. 107, 385 (1953) was followed, with the following modifications, in the first procedure. Mice are pretested by placing them individually on the cleaned surface of a copper water bath, the temperature of which is maintained at 54°-55°C. The reaction time of this noxious thermal stimulus is the time in seconds required for either licking of the paws or jumping, such that all four paws leave the surface of the plate. The drug is then administered orally or subcutaneously, generally at five dosage levels, (10 mice per dosage level) and the reaction times are redetermined at intervals of 1/2 hour, 1 hour, and 2 hours; the time of peak activity is the time at which the greatest number of animals is protected. From the pretreatment reaction times the mean and standard deviations are computed. The cut-off time is taken to be the mean reaction time plus 2 standard deviation units. Reaction times equal to or exceeding this cut-off time are considered to represent analgetic responses. The dosage required to produce an analgetic response in 50% of the animals (ED50 and 95% limits) is computed graphically.

Series [3] is described as follows: Phenyl-p-quinone writhing (Siegmund). Format: in vivo, adult albino male mice (Charles River strain). The conditions noted are these: oral, mice, not dose-related. On the procedure:
as §1
In the second procedure, the method of Siegmund, E., et al. reported in Proc. Soc. Exptl. Biol. and Med. 95, 729, (1957) was generally followed. The method is based on the antagonism by both non-narcotic and narcotic analgetics of a syndrome induced in mice following intraperitoneal injection of phenyl-p-quinone. The syndrome is characterized by intermittent contractions of the abdomen, twisting and turning of the trunk, and extension of the hind legs, beginning 3 to 10 minutes after the injection and persisting for more than one hour. The test drug is administered orally at four to five dosage levels. At the time of peak activity, 0.25 ml. of a 0.02 per cent solution of phenyl-p-quinone in 5 per cent (aqueous) ethyl alcohol is injected intraperitoneally. Inhibition of the syndrome is considered an analgetic response.
Background: An intraperitoneal irritant provokes the stretching counted in writhing tests.

Series [4] is described as follows: Acute oral toxicity in mice. Details: species or system adult albino male mice (Charles River strain). The conditions noted are these: mouse, in vivo, 95% limits in parentheses. As to the method: as §1, §2

As usually defined, the ED50 is the dose that gives a 50% effect, or the effect in half of the subjects. In general, LD50 refers to the dose expected to kill half of the subjects tested.

Where two headings read alike, the source gives them in different places. A value given as a limit tells only on which side of the number the result lay.

Turning to `CC(c1ccccc1)C1(OC(=O)C(C)(C)C)C(=O)NC(=O)NC1=O` (centres unmarked) [5-pivaloyloxy-5-(1-phenylethyl) barbituric acid], the selectivity ratio in series [1] is over 230. Further, the ED50 in series [2] (sc, subcutaneous, not dose-related, read-out: Hot-Plate ED50 (subcutaneous)) was 40 to 80 mg/kg; in series [2] (oral, read-out: Hot-Plate ED50 (oral)) it was under 3.1 mg/kg. In series [2] (time at which the greatest number of animals is protected), the “Time of Peak Activity” value is 1/2. Further, the “Phenyl-p-quinone Writhing, % active” value in series [3] (100 mg/kg) amounted to 26%; in series [3] (200 mg/kg), 30%; in series [3] (400 mg/kg), 10%. In addition, the median lethal dose (LD50) in series [4] came out at 690 mg/kg.

The values are drawn from patent US3937830A, “5-Pivaloyloxy-5-(1-phenylethyl) barbituric acid, analgetic composition and method based thereon” (The Kendall Company, priority 1974, dated 1976).
